“Also recorded” adds a separate entry of the source.
Tested on: bovine satellite cells (BSCs)
Assay: Short-term growth analysis (3 and 4 days, dsDNA quantitation, brightfield imaging)
Assay type: cell-based
Conditions: for BSC proliferation compared to B8 media alone: supplement in B8, range of concentrations, growth over four days; for FGF-2 concentration to which medium could be lowered without significantly affecting growth: vs 40 ng/mL control
Method: Homemade B8 medium was prepared using store-bought components and a previously described formulation and method of preparation. See, Kuo, H. H. et al. Negligible-Cost and Weekend-Free Chemically Defined Human iPSC Culture. Stem Cell Reports 14, 256-270. Table 1 includes the formulation. Additionally, HiDef-B8 medium aliquots were generously provided by Defined Bioscience (Defined Bioscience #LSS-201, San Diego, CA, USA) and added DMEM/F12 with 1% antibiotic/antimycotic. Short term BSC growth (3 and 4 days) was analyzed for mixtures of serum-containing and serum-free media, as well as for pure B8 media with reduced growth factor concentrations and/or with the addition of various media supplements (Table 2). Briefly, BSCs were thawed (passage number <2) and plated in BSC-GM on 96-well tissue-culture plastic plates for each timepoint at a density of 2,500 cells/cm^2 with 0.25 ug/cm^2 iMatrix recombinant laminin-511. After 24 hours, BSC-GM was removed, cells were washed 1× with DPBS, and new media (e.g., B8+/−supplementation) was added. A list of supplements and concentrations can be found in Table 2. Media was changed on day 3, and on days 3 and 4 cells were imaged, media was aspirated from appropriate plates, and plates were frozen at −80° C. Once all timepoints were frozen, cell number was analyzed using a FluoReporter dsDNA quantitation kit (ThermoFisher #F2962) according to the recommended protocol and with fluorescence readings performed on a Synergy H1 microplate reader (BioTek Instruments, Winooski, VT, USA) using excitation and emission filters centered at 360 and 490 nm, respectively. Cell number at 3 and 4 days was analyzed relative to pure B8 or HiDef media.

Row | Compound | BSC proliferation compared to B8 media alone | further results
1 | COc1cc(/C=C/C(=O)CC(=O)/C=C/c2ccc(O)c(OC)c2)ccc1O [curcumin, reference compound] | significantly improved | 
2 | NCCO [ethanolamine, reference compound] | inconsequential | 
3 | CCCCC/C=C\C/C=C\CCCCCCCC(=O)O [linoleic acid, reference compound] | significantly improved | 
4 | CCCCCCCC/C=C\CCCCCCCC(=O)O [oleic acid, reference compound] | significantly improved | growth vs B8 control on day 4 (tested alone in B8, day 4): no significant difference
5 | FGF-2: fibroblast growth factor, component of B8 and Beefy-9, baseline 40 ng/mL |  | effect of complete removal of FGF-2 on cell growth and morphology (0 ng/mL FGF-2 in the media): significantly affects cell morphology; also recorded: significantly affected; effect of FGF-2 reduction on cell morphology (Beefy-9 with 5 ng/mL FGF-2, three days): did not affect morphology; FGF-2 concentration to which medium could be lowered without significantly affecting growth (in B8, four days): 5 ng/mL; FGF-2 concentration to which medium could be lowered without significantly affecting growth (in Beefy-9, four days): 1.25 ng/mL
6 | IL-6: interleukin-6, media supplement (BioRad PBP021) | significantly improved | 
7 | hepatocyte growth factor: hepatocyte growth factor, media supplement tested in B8 | inconsequential | 

From patent US20240034987A1, “SUPPLEMENTED SERUM-FREE MEDIA FOR CULTURED MEAT PRODUCTION” (Trustees of Tufts College, priority 2020, published 2024)
